Source: patent publication US11365201B2, “Chlorotonil derivatives” (HELMHOLTZ-ZENTRUM FÜR INFEKTIONSFORSCHUNG GMBH, priority 2017, dated 2022)
≈ marks a conversion by molar mass, not a printed value. Read-outs that look alike come from different tables or passages of the source.

Columns and labels:
[1] = system: P. falciparum 3D7 (sensitive strain); assay: Antiplasmodial in vitro drug sensitivity assay (HRP2-ELISA); type: cell-based; details: Plasmodium falciparum, P. falciparum 3D7 (sensitive strain), read-out: IC50 against P. falciparum 3D7
Description: (§1) Two laboratory strains of P. falciparum, the chloroquine sensitive 3D7 and the multi-resistant Dd2 were kept in continuous culture as previously described (Trager and Jensen 1976). In brief, parasites were kept in complete culture medium (RPMI 1640, 25 mM HEPES, 2 mM L-glutamine, 50 μg/ml gentamicin and 0.5% w/v AlbuMAX) at 37° C., 5% CO2 and 5% oxygen at 5% hematocrit with daily change of medium. Synchronization was performed with sorbitol twice a week (Lambros and Vanderberg 1979).
(§2) In Vitro Drug Sensitivity Assay
(§3) All compounds were dissolved in DMSO at stock dilutions between 25 and 100 mM; the reference drug chloroquine diphosphate (MW: 515.86) was diluted in distilled water and DMSO, respectively. […] Antiplasmodial activity of the different compounds was tested in a drug sensitivity assay against the two laboratory strains using the histidine-rich protein 2 (HRP2) assay as described previously (Noedl 2005). In brief: 96 well plates were pre-coated with the different compounds in a threefold dilution before ring stage parasites were added in complete culture medium at a hematocrit of 1.5% and a parasitemia of 0.05% in a total volume of 225 μl per well. After three days of incubation plates were frozen until analyzed by HRP2-ELISA. All compounds were evaluated in duplicate in at least two independent experiments.

[2] = system: P. falciparum Dd2 (resistant strain); assay: as above; type: cell-based; details: Plasmodium falciparum, P. falciparum Dd2 (resistant strain), read-out: IC50 against P. falciparum Dd2
Description: as §1, §2, §3

[3] = Determination of water solubility, Method 1 (suspension in tap water, weighing); type: physicochemical; details: thermodynamic from solid, room temperature, 18 h stirring, triplicates
Description: (§4) Determination of Water Solubility
10 mg of compound was suspended in 1 L of tap water and the solution was stirred at room temperature for 18 h. Upon completion, solution was sonicated for another hour, centrifuged and the supernatant was separated from the precipitate. Both aliquots were lyophilized, and weighed. This procedure was performed in triplicates.

E. coli TolC (+PMBN) = assay: Antimicrobial assay, MIC by microbroth dilution with PMBN; type: cell-based; details: 16 h, 3 μg/mL polymyxin B nonapeptide (PMBN) added
Description: (§5) Bacterial strains used in susceptibility assays (minimum inhibitory concentrations, MIC) were either part of our internal strain collection or were purchased form the German Collection of Microorganisms and Cell Cultures (DSMZ). All compounds were prepared as DMSO stocks and MIC values were determined in standard microbroth dilution assays. Overnight cultures of bacteria were diluted in cation-adjusted Muller-Hinton broth (BBL™, BD) and were adjusted to approximately 10^5 cfu/mL. For the E. coli culture, 3 μg/mL of polymyxin B nonapeptide (PMBN) was added to increase permeability of the outer membrane as chlorotonils were previously shown to not penetrate into Gram-negative cells. Bacteria were grown in the presence of the derivatives in serial dilution for 16 h at their optimal growth temperature. MIC values were determined according to CLSI guidelines (antibiotic concentration at which no visible bacterial growth is observed).

[4] = Determination of water solubility, Method 2 (HPLC-MS standard curve, saturated solution in water); type: physicochemical; details: for solubility: thermodynamic from solid, saturated solution in water, HPLC-MS standard curve
Description: as §4
A standard curve with 10 calibration points of the compound of interest is plotted using HPLC-MS and serial dilution. The dilutions and stock solutions were prepared in THF as a solvent. Following the measurements, a saturated solution in water of the compound in study was also measured. Upon plotting the standard curve using the peak areas of the MS peaks, the water samples were plotted along the curve and the solubility was then calculated.

B. subtilis DSM-10 = assay: Antimicrobial assay, MIC by microbroth dilution; type: cell-based; details: Bacillus subtilis, DSM10; 16 h, cation-adjusted Muller-Hinton broth
Description: as §5, with “For the E. coli culture, 3 μg/mL of polymyxin B nonapeptide (PMBN) was added to increase permeability of the outer membrane as chlorotonils were previously shown to not penetrate into Gram-negative cells.” left out

S. aureus Newman = assay: Antimicrobial assay, MIC by microbroth dilution; type: cell-based; details: Staphylococcus aureus, NEWMAN; 16 h, cation-adjusted Muller-Hinton broth
Description: as §5, with “For the E. coli culture, 3 μg/mL of polymyxin B nonapeptide (PMBN) was added to increase permeability of the outer membrane as chlorotonils were previously shown to not penetrate into Gram-negative cells.” left out

C. glutamicum DSM-20300 = assay: Antimicrobial assay, MIC by microbroth dilution; type: cell-based; details: Corynebacterium glutamicum, DSM20300; 16 h, cation-adjusted Muller-Hinton broth
Description: as §5, with “For the E. coli culture, 3 μg/mL of polymyxin B nonapeptide (PMBN) was added to increase permeability of the outer membrane as chlorotonils were previously shown to not penetrate into Gram-negative cells.” left out

[5] = system: L-929 (murine fibroblasts); assay: Cytotoxicity assay (MTT, 5 d); type: cell-based; details: Mus musculus, L929, 120 h
Description: Cytotoxicity Assay The murine fibroblast cell line L-929 was obtained from the German Collection of Microorganisms and Cell Cultures (DSMZ) and maintained under conditions recommended by the depositor. Cells were seeded at 6×10^3 cells per well of sterile 96-well plates in 180 μL complete medium and treated with the compounds in serial dilution after 2 h of equilibration. After 5 d, viability was assessed by the MTT method. After 1.5 h incubation with 0.5 mg/mL MTT reagent, cells were washed with PBS and 100 μL of 2-propanol/10 N HCl (250:1) was added. The absorbance at 570 nm was determined on a microplate reader and cell viability was expressed as percentage relative to the respective solvent control. Half-inhibitory concentrations (IC50) were determined by sigmoidal curve fitting.

Gram-positive bacteria = assay: Antimicrobial assay, MIC against a range of Gram-positive bacteria (Table 5); type: cell-based; details: read-out: MIC
Description: as §5, with “For the E. coli culture, 3 μg/mL of polymyxin B nonapeptide (PMBN) was added to increase permeability of the outer membrane as chlorotonils were previously shown to not penetrate into Gram-negative cells.” left out

[6] = system: zebrafish larvae of the TLF wild type line; assay: Zebrafish embryo toxicity, maximum tolerated concentration (MTC), TLF line; type: in vivo; details: at five dpf, incubation started at one dpf
Description: (§6) Zebrafish Embryo Toxicity
(§7) The maximum tolerated concentration (MTC) was determined on zebrafish larvae of the AB wildtype line and the TLF wild type line. Larvae were placed into a 96-well plate (one larva per well) and incubated in a solution at different concentrations (100, 50, 25, 10, 1 μM) of ChA, ChA-Epo2, ChB or ChB-Epo at two days post fertilization (dpf) for AB and in a solution at different concentrations of ChA (100, 50 μM) ChA-Epo2 (25, 10, 1 μM), ChB (100, 50 μM) or ChB-Epo (100, 50, 25 μM) at one dpf for TLF. Five zebrafish larvae were used per condition. The incubated embryos were kept in compound solutions at 28° C. until five dpf and monitored daily by microscopy. The final MTC result was recorded at five dpf. Compound solutions were prepared in the larvae medium Danieau's. Additionally a solution of 0.5% DMSO in Danieau's was used as vehicle control and Danieau's alone as a negative control.

[7] = system: zebrafish larvae of the AB wildtype line; assay: Zebrafish embryo toxicity, maximum tolerated concentration (MTC), AB line; type: in vivo
Description: as §6, §7

C[C@@H]1C(=O)O[C@@H](C)/C=C/C=C\[C@@H](C)[C@@H]2C=C[C@@H]3C[C@@](C)(O)[C@H](O[N+](=O)[O-])[C@@H](C)[C@H]3[C@@H]2C(=O)C(Cl)(Cl)C1=O [ChA-Epo2-ONO2]
IC50 [1]: 0.00092 µM
IC50 [2]: 0.0022 µM
solubility at 18 h [3]: 310 µg/mL (≈ 555 µM)
MIC E. coli TolC (+PMBN) (E. coli TolC (+PMBN)): 0.1 µg/mL
solubility [4]: 380 µg/mL (≈ 680 µM)
MIC (B. subtilis DSM-10): 0.025 µg/mL (≈ 0.0448 µM)
MIC (S. aureus Newman): 0.025 µg/mL (≈ 0.0448 µM)
MIC (C. glutamicum DSM-20300): 0.1 µg/mL (≈ 0.179 µM)

CCCCO[C@@H]1[C@@H](C)[C@H]2[C@@H]3C(=O)C(Cl)(Cl)C(=O)[C@H](C)C(=O)O[C@@H](C)/C=C/C=C\[C@@H](C)[C@@H]3C=C[C@@H]2C[C@@]1(C)O [ChA-Epo2-OBu]
IC50 ([1]; μM): > 11 µM
IC50 ([2]; μM): > 11 µM
IC50 [5]: 49400 nM
MIC E. coli TolC (+PMBN) (E. coli TolC (+PMBN)): >3.2 µg/mL
MIC (B. subtilis DSM-10): 0.8 µg/mL (≈ 1.4 µM)
MIC (S. aureus Newman): 1.6 µg/mL (≈ 2.81 µM)
MIC (C. glutamicum DSM-20300): > 3.2 µg/mL

C[C@@H]1C(=O)O[C@@H](C)/C=C/C=C\[C@@H](C)[C@@H]2C=C[C@@H]3C[C@@](C)(O)[C@H](Cl)[C@@H](C)[C@H]3[C@@H]2C(=O)C(Cl)(Cl)C1=O [ChA-Epo2-Cl]
IC50 [1]: 0.0387 µM
IC50 [2]: 0.0459 µM
IC50 [5]: 4200 nM
solubility at 18 h [3]: 280 µg/mL (≈ 526 µM)
MIC E. coli TolC (+PMBN) (E. coli TolC (+PMBN)): 0.8 µg/mL
solubility [4]: 320 µg/mL (≈ 602 µM)
MIC (B. subtilis DSM-10): 0.1 µg/mL (≈ 0.188 µM)
MIC (S. aureus Newman): 0.05 µg/mL (≈ 0.094 µM)
MIC (C. glutamicum DSM-20300): 0.4 µg/mL (≈ 0.752 µM)

CC(C)CCO[C@@H]1[C@@H](C)[C@H]2[C@@H]3C(=O)C(Cl)(Cl)C(=O)[C@H](C)C(=O)O[C@@H](C)/C=C/C=C\[C@@H](C)[C@@H]3C=C[C@@H]2C[C@@]1(C)O [ChA-Epo2-Oisoamyl]
IC50 ([1]; μM): > 11 µM
IC50 ([2]; μM): > 11 µM
IC50 [5]: 44700 nM
MIC E. coli TolC (+PMBN) (E. coli TolC (+PMBN)): 0.8 µg/mL
MIC (B. subtilis DSM-10): 0.8 µg/mL (≈ 1.37 µM)
MIC (S. aureus Newman): 1.6 µg/mL (≈ 2.74 µM)
MIC (C. glutamicum DSM-20300): 3.2 µg/mL (≈ 5.48 µM)

CC1=C[C@@H](C)[C@H]2[C@@H]3C(=O)C(Cl)(Cl)C(=O)[C@H](C)C(=O)O[C@@H](C)/C=C/C=C\[C@@H](C)[C@@H]3C=C[C@@H]2C1 [Chlorotonil A (ChA), Chlorotonil A, reference compound]
water solubility ([4]; summary of Table 1, method not given): less than 2 μg/mL

C[C@@H]1C(=O)O[C@@H](C)/C=C/C=C\[C@@H](C)[C@@H]2C=C[C@]3(C)C[C@]4(C)O[C@@H]4[C@@H](C)[C@H]3[C@@H]2C(=O)C(Cl)(Cl)C1=O [ChA-Epo1]
IC50 [1]: 0.0965 µM
IC50 [2]: 0.229 µM
IC50 [5]: 10300 nM
MIC E. coli TolC (+PMBN) (E. coli TolC (+PMBN)): >3.2 µg/mL
MIC (B. subtilis DSM-10): 3.2 µg/mL (≈ 6.28 µM)
MIC (S. aureus Newman): 3.2 µg/mL (≈ 6.28 µM)
MIC (C. glutamicum DSM-20300): > 3.2 µg/mL

C[C@@H]1C(=O)O[C@@H](C)/C=C/C=C\[C@@H](C)[C@@H]2C=C[C@@H]3C[C@@]4(C)O[C@H]4[C@@H](C)C3C2/C(O)=C(\Cl)C1=O (stereo partly drawn) [ChB-Epo]
IC50 [1]: 0.158 µM
IC50 [2]: 0.182 µM
MIC (Gram-positive bacteria; Enterococcus faecalis, E. faecalis 20478): 3.2 µg/mL (≈ 6.94 µM)
MIC (Gram-positive bacteria; Enterococcus faecalis, E. faecalis 29212): > 3.2 µg/mL
MIC (Gram-positive bacteria; Enterococcus faecium, E. faecium 20477): > 3.2 µg/mL
MIC (Gram-positive bacteria; Enterococcus faecium, VRE, E. faecium 17050 (VRE)): 3.2 µg/mL (≈ 6.94 µM)
MIC (Gram-positive bacteria; Micrococcus luteus, M. luteus): 0.1 µg/mL (≈ 0.217 µM)
MIC (Gram-positive bacteria; Mycolicibacterium smegmatis, M. smegmatis): > 3.2 µg/mL
MIC (Gram-positive bacteria; Priestia megaterium, B. megaterium): 0.05 µg/mL (≈ 0.108 µM)
MIC (Gram-positive bacteria; Staphylococcus epidermidis, S. epidermidis 28765): 0.8 µg/mL (≈ 1.74 µM)
MIC (Gram-positive bacteria; Streptococcus pneumoniae, PRSP, S. pneumoniae 11865 (PRSP)): > 32 µg/mL
MIC (Gram-positive bacteria; Streptococcus pneumoniae, S. pneumoniae 20566): 0.8 µg/mL (≈ 1.74 µM)
Observations noted on fish larvae ([6]; 50 μM): slight tail malformation
Observations noted on fish larvae ([6]; 100 μM): tail malformation
MTC (maximum tolerated concentration) [6]: 25 µM
Observations noted on fish larvae ([7]; 50 μM, AB line, at five dpf, incubation started at two dpf): died
Observations noted on fish larvae ([7]; 100 μM, AB line, at five dpf, incubation started at two dpf): died
MTC (maximum tolerated concentration) ([7]; AB line, at five dpf, incubation started at two dpf): 25 µM
Toxicity in zebrafish (MTC), comparison of the epoxide derivatives ([7]; zebrafish, line not named in the sentence (Tables 6 and 7)): less toxic than the chlorotonil A derivative
MIC (S. aureus Newman): 0.05 µg/mL (≈ 0.108 µM)

C[C@@H]1C(=O)O[C@@H](C)/C=C/C=C\[C@@H](C)[C@@H]2C=C[C@@H]3C[C@@](C)(O)[C@H](Br)[C@@H](C)[C@H]3[C@@H]2C(=O)C(Cl)(Cl)C1=O [ChA-Epo2-Br]
IC50 [1]: 0.0251 µM
IC50 [2]: 0.0644 µM
IC50 [5]: 1100 nM
MIC E. coli TolC (+PMBN) (E. coli TolC (+PMBN)): 0.2 µg/mL
MIC (B. subtilis DSM-10): 0.05 µg/mL (≈ 0.0868 µM)
MIC (S. aureus Newman): 0.05 µg/mL (≈ 0.0868 µM)
MIC (C. glutamicum DSM-20300): 0.1 µg/mL (≈ 0.174 µM)
